One assay has as its target T1, NRP1‐b1 (Homo sapiens, UniProt O14786).
T1 construct: the immobilized b1 domain of NRP1 (NRP1‐b1); poly-histidine (TEV-cleavable) (cleaved yes); made in house; host or cells: E. coli Rosetta (DE3)
T1 sequence (O14786 275-424 limits assumed): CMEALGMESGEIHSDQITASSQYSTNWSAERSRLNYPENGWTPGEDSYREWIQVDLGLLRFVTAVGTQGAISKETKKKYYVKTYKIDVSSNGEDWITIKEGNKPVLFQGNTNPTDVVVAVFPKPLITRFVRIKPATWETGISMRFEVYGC
Kind of assay: SPR binding of peptides to immobilised NRP1-b1. The settings on record: for Receptor occupancy: immobilised NRP1-b1. An excerpt: We then designed four additional peptides with added lipid chains (Figures 3 and 4). We investigated the effect of lipidation on the N‐terminus (MGC0171 and MGC0174) and on the side chain of a lysine in close proximity to the C‐terminus (MGC0172 and MGC0173) as shown (Figure 5). For the SPR analysis of the lipidated peptides we fitted data to a two‐state reaction model to account for the nonspecific binding of the palmitoyl side chains. Since the model assumes two binding events it provides two association (k a) and dissociation (k d) rates, and the overall equilibrium dissociation constant is calculated using the equation: KD=KD1(1+KD2), in which KD1 and KD2 are obtained as […]. The inverse of the dissociation rate corresponds to the residence time. […] The lipidated peptides were also tested for inhibition of VEGF‐A165 binding to NRP1 in a cell‐based assay (Figure 8).
Surface plasmon resonance: SPR measurements were performed using either Biacore T200 or Biacore 4000 at a constant temperature of 25 °C. All sensor chips, stock buffers, and immobilisation reagents were purchased from GE Healthcare/Cytvia and were prepared according to the manufacturer's instructions.
Chip preparation: PBS containing 0.05 % surfactant P20 was used as the running buffer during immobilisation. Proteins were immobilised onto a CM5 chip using random amine coupling following a standard procedure using the conditions specified in Table 2. A flow cell upstream of the treated flow cell was used as a reference which allowed removal of non‐specific binding to the chip.
Kinetic measurements of peptides: Peptides were injected over immobilized NRP1‐b1 for 60 s, followed by 120 or 180 s dissociation. The surface was regenerated with 1 M NaCl between injections. The SPR response curves were fit to a binding model to obtain association (ka ) and dissociation (kd ) rates which were then converted into equilibrium dissociation constant (KD ) and residence time. For a 1 : 1 binding model […] and for a two‐state binding model KD=K1(1+K2). Residence time was calculated as 1/kd .

The target of assay [1] is T2, bt‐VEGF‐A165 binding to NRP1 in HUVEC cells (Homo sapiens, UniProt O14786).
T2 construct: expressed in transfected cells
Briefly: Cell based binding assay, inhibition of bt-VEGF-A165 binding to NRP1. The settings on record: bt-VEGF-A165 4 nM. The method, then:
A) N‐terminal palmitoyl VEGF‐B167 derived peptide MGC0174. B) Lysine palmitoyl peptide MGC0173. C) N‐terminal palmitoyl VEGF‐A165 derived peptide MGC0171. D) Lysine VEGF‐A165 palmitoyl peptide MGC0172.
Cell based binding assay for bt‐VEGF binding to NRP1‐b1: A flat‐bottomed 96 well plate was coated with 100 μL 10 μg/mL Poly‐D‐lysine (110 μL in 10890 μL PBS) and incubated for 1 hour at R.T. DU145 cells were seeded at a concentration of 20,000 DU145 cells/well in DMEM with 10 % FBS and incubated for 4 hours. Cells were then infected with 0.3 μL per well of adenovirus expressing NRP1 (stock at 1×1012 vp/mL) and incubated for 40 hours. The media was removed followed by washing cells twice in 200 μL of PBS per well. The plate was placed on ice and 50 μL of binding medium was added per well for total binding. Next, 50 μL of 100‐fold excess (100×btVEGF‐A165) of unlabelled‐VEGF (diluted in binding medium) was added per well for non‐specific binding. Peptides (50 μL) at the indicated concentrations were diluted in binding medium and added to specified wells. bt‐VEGF (50 μL of 4 nM; diluted in binding medium) was added per well for both total and non‐specific binding and samples. The plate was incubated at 4 °C for 2 hours. The plate was then placed on ice and the medium was removed followed by gently washing the cells 3 times in 200 μL of PBS per well.
Streptavidin‐horseradish peroxidase (100 μL; dilute to the working concentration specified on the vial label using PBS+1 % BSA=1 : 200) was added to each well. The plate was sealed and incubated for 30 minutes at room temperature. Three more washes with 200 μL PBS were done. Then, 100 μL of substrate solution was added to each well (protected from light). Colour Reagent A and B were mixed together in equal volumes within 15 minutes of use. The plate was sealed and incubated for 20 minutes at room temperature. Stop solution (50 μL) was added to each well ensuring even mixing. The plate was read using Tecan Genios plate reader using a 450 nm cut‐off filter and also with a reference 595 nm cut‐off filter. Nonspecific binding was determined in the absence of NP‐1 coated on the microplate.

For assay [2], the system named is VEGF‐A165 stimulated phosphorylation in HUVECs. Kind of assay: Western blot of VEGF-A-stimulated phosphorylation of downstream signalling proteins in HUVECs. The class given is cell-based, human. Conditions: HUVECs pre-treated 30 min with 10 μM peptide, then VEGF-A165 10 min. Here is the method: Figure 7 Effect of VEGF ‐ derived peptides on VEGF‐A ‐stimulated phosphorylation of downstream signalling proteins as probed by Western blot. A) VEGF‐B167 derived peptide MGC0123. B) VEGF‐A165 derived peptide MGC0124. HUVECs were pre‐treated for 30 min with peptide (10 μM) then stimulated for 10 minutes with VEGF‐A165.
Cell culture: Human umbilical vein endothelial cells (HUVECs) were cultured in t75 cm2 flasks for a maximum of 2 passages in EGM Endothelial Cell Growth Medium (#CC‐3124, Lonza, USA) supplemented with 10 % FBS. Cells were split into 6‐well‐plates and allowed to grow to ∼80 % confluence. Cells were starved by incubating in 0.5 % FBS serum EGM overnight and serum‐free EGM for 1 h directly before stimulation. Human DU145 cells for the cell‐based assay (see below) were cultured in t75 cm2 flasks in DMEM supplemented with 10 % FBS.
Immunoblotting: Cells were pre‐treated with the indicated peptide (10 μM) for 30 minutes prior to treatment with VEGF‐A165 at the indicated concentrations for 10 minutes. Cells were lysed in a solution containing Tris⋅HCl (pH 7.5, 50 mm), Triton X‐100 (1 %), NaCl (150 mm), EDTA (5 mm), complete protease inhibitor (Roche) and phosphatase inhibitors I and II (Sigma) and analysed by SDS‐PAGE with 4–12 % Bis⋅Tris gels (Nupage, Invitrogen), followed by electrotransfer onto Invitrolon PVDF membranes (Invitrogen). Membranes were blocked with non‐fat dry milk (5 % w/v) and Tween‐20 (0.1 % v/v) in tris‐buffered saline (TBS‐T), for 1 h at room temperature, before being probed with the primary antibody by overnight incubation at 4 degrees C, followed by incubation for 1 h at room temperature with a horseradish‐ peroxidase‐linked secondary antibody (Santa Cruz) and detection with the aid of ECL plus reagents (GE Healthcare, Little Chalfont, UK), by the manufacturer's protocol.

[3] abbreviates: SPR, immobilised NRP1-b1, 25 °C, 1:1 model, or first residence time of the two-state model, read-out: Residence time (1/kd) (converted).

SMILES strings stand for the structures. Where two headings read alike, the source gives them in different places. Positions of bridges follow the written chain, without caps; N, C: chain ends. Residues, ends and D or L forms follow the SMILES beside them. *: point of attachment. Palmitoyl = CCCCCCCCCCCCCCCC(=O)*; Hept6ynoyl = C#CCCCCC(=O)*

T2 sequence (O14786 22-923): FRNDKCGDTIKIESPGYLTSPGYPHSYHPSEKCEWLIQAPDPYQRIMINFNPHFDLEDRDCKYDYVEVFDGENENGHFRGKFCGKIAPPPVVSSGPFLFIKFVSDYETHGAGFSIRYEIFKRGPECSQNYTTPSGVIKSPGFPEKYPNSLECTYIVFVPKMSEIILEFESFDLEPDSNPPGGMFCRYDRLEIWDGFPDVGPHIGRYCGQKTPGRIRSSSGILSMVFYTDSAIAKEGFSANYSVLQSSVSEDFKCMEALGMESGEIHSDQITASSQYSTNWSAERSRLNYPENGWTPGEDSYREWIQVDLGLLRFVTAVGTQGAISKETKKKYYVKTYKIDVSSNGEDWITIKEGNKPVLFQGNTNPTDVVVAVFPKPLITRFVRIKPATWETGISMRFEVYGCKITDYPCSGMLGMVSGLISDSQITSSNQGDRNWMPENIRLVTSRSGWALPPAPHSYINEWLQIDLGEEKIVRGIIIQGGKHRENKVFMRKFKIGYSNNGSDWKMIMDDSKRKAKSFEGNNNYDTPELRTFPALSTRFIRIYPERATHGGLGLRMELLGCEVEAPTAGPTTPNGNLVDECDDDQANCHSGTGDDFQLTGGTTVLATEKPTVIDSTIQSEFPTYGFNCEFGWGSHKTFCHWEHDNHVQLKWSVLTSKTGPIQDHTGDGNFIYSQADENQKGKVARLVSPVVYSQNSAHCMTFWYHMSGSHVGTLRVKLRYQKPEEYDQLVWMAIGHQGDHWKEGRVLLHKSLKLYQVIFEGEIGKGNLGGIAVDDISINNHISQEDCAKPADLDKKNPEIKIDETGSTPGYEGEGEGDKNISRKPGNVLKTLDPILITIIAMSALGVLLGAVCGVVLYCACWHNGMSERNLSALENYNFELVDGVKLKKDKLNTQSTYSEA

With `C#CCCCCC(=O)N[C@@H](CC(=O)O)C(=O)N[C@@H](CCCNC(=N)N)C(=O)N[C@@H](C)C(=O)N[C@@H](C)C(=O)N[C@H](C(=O)N1CCC[C@H]1C(=O)N[C@@H](Cc1c[nH]cn1)C(=O)N[C@@H](Cc1c[nH]cn1)C(=O)N[C@@H](CCCNC(=N)N)C(=O)N1CCC[C@H]1C(=O)N[C@@H](CCC(N)=O)C(=O)N1CCC[C@H]1C(=O)N[C@@H](CCCNC(=N)N)C(=O)O)[C@@H](C)O` [MGC0122] (Hept6ynoyl-DRAATPHHRPQPR-OH), the residence time at NRP1‐b1 (setting [3]) is 0.0362 min.
In turn, `CCCCCCCCCCCCCCCC(=O)NCCCC[C@H](NC(=O)[C@H](CC(=O)O)NC(=O)[C@@H]1CSSC[C@@H]2NC(=O)[C@H](CCCNC(=N)N)NC(=O)[C@H](CO)NC(=O)[C@H](CC(=O)O)NC(=O)[C@H]([C@@H](C)O)NC(=O)[C@H](CC(N)=O)NC(=O)[C@H](CCCCN)NC(=O)[C@@H](NC(=O)[C@H](CO)NC(C)=O)CSSC[C@H](NC(=O)[C@H]([C@@H](C)O)NC(=O)[C@H](CCCNC(=N)N)NC(=O)[C@H](CCC(=O)O)NC(=O)[C@H](CC(N)=O)NC(=O)[C@H](CC(C)C)NC(=O)[C@H](CCC(=O)O)NC(=O)[C@H](CC(C)C)NC(=O)[C@H](CCC(N)=O)NC(=O)[C@H](CCCNC(=N)N)NC(=O)[C@H](C)NC(=O)[C@H](CCCCN)NC2=O)C(=O)N[C@@H](CCCNC(=N)N)C(=O)N1)C(=O)N1CCC[C@H]1C(=O)N[C@@H](CCCNC(=N)N)C(=O)N[C@@H](CCCNC(=N)N)C(=O)O` [MGC0172] (Ac-SCKNTDSRCKARQLELNERTCRCDK(Palmitoyl)PRR-OH; disulfide 2-21, 9-23) returned a Receptor occupancy on NRP1‐b1 (SPR) of 22±1%. Also, the residence time on NRP1‐b1 (setting [3]) was 0.123 min; on NRP1‐b1 (SPR, immobilised NRP1-b1, 25 °C, two-state model, lipidated peptides, read-out: Second residence time calculated from two‐state model (converted)) it was 1.99 min. Further, on NRP1‐b1 (SPR, peptide injected 60 s over NRP1-b1 immobilised on CM5 chip, 25 °C, 1:1 model for MGC0122/0123/0124, two-state model for lipidated peptides, read-out: KD, SPR binding to NRP1‐b1), the Kd came to 1.22 ± 0.25 µM. Also, the IC50 in assay [1] (4 °C, 2 h, streptavidin-horseradish peroxidase detection, read-out: IC50, cell‐based activity (HUVECs), inhibition of bt‐VEGF‐A165 binding to NRP1) came to 10.4 µM. Besides, the “HS (of the inhibition curve of bt‐VEGF‐A165 binding to NRP1)” value in assay [1] (HUVEC cells) worked out at 1.9.
Consider `C#CCCCCC(=O)N[C@@H](CO)C(=O)N[C@H]1CSSC[C@@H]2NC(=O)[C@H]([C@@H](C)O)NC(=O)[C@H](CCCNC(=N)N)NC(=O)[C@H](CCC(=O)O)NC(=O)[C@H](CC(N)=O)NC(=O)[C@H](CC(C)C)NC(=O)[C@H](CCC(=O)O)NC(=O)[C@H](CC(C)C)NC(=O)[C@H](CCC(N)=O)NC(=O)[C@H](CCCNC(=N)N)NC(=O)[C@H](C)NC(=O)[C@H](CCCCN)NC(=O)[C@H](CSSC[C@@H](C(=O)N[C@@H](CC(=O)O)C(=O)N[C@@H](CCCCN)C(=O)N3CCC[C@H]3C(=O)N[C@@H](CCCNC(=N)N)C(=O)N[C@@H](CCCNC(=N)N)C(=O)O)NC(=O)[C@H](CCCNC(=N)N)NC2=O)NC(=O)[C@H](CCCNC(=N)N)NC(=O)[C@H](CO)NC(=O)[C@H](CC(=O)O)NC(=O)[C@H]([C@@H](C)O)NC(=O)[C@H](CC(N)=O)NC(=O)[C@H](CCCCN)NC1=O` [MGC0124] (Hept6ynoyl-SCKNTDSRCKARQLELNERTCRCDKPRR-OH; disulfide 2-21, 9-23), for which the Receptor occupancy at NRP1‐b1 (SPR) turned out to be 84±1%. The residence time on NRP1‐b1 (setting [3]) was 0.0117 min. For the same molecule, in assay [2], the “VEGF‐A165 dependent ERK phosphorylation” value is reported as “little effect”, the “VEGF‐A165 dependent VEGFR2 phosphorylation” value is reported as “strongly reducing”, the “VEGF‐A mediated P130Cas phosphorylation” value was “little effect” and the “VEGF‐A mediated Paxillin phosphorylation” value is “little effect”.
`C#CCCCCC(=O)N[C@@H](CCCNC(=N)N)C(=O)N[C@H]1CSSC[C@@H]2NC(=O)[C@H]([C@@H](C)O)NC(=O)[C@H](CC(=O)O)NC(=O)[C@@H]3CCCN3C(=O)[C@H](CC(N)=O)NC(=O)[C@H](CC(C)C)NC(=O)[C@H](CCC(=O)O)NC(=O)[C@H](CC(C)C)NC(=O)CNC(=O)[C@H](CCCNC(=N)N)NC(=O)CNC(=O)[C@H](CCC(N)=O)NC(=O)[C@H](CSSC[C@@H](C(=O)N[C@@H](CCCNC(=N)N)C(=O)N[C@@H](CCCCN)C(=O)N[C@@H](CC(C)C)C(=O)N[C@@H](CCCNC(=N)N)C(=O)N[C@@H](CCCNC(=N)N)C(=O)O)NC(=O)[C@H](CCCNC(=N)N)NC2=O)NC(=O)[C@H](CCCNC(=N)N)NC(=O)[C@H](CC(C)C)NC(=O)[C@H](Cc2ccccc2)NC(=O)[C@H](CO)NC(=O)[C@H](CCCNC(=N)N)NC(=O)[C@H](CCCNC(=N)N)NC(=O)[C@H](CCCNC(=N)N)NC1=O` [MGC0123] (Hept6ynoyl-RCRRRSFLRCQGRGLELNPDTCRCRKLRR-OH; disulfide 2-22, 10-24) gave a Receptor occupancy at NRP1‐b1 (SPR) of 54±3%. Moreover, the residence time on NRP1‐b1 (read-out: Residence time (1/kd)) was 0.308 min. In assay [2], the “VEGF‐A165 dependent ERK phosphorylation” value is “dramatically inhibited”, the “VEGF‐A165 dependent VEGFR2 phosphorylation” value is “dramatically inhibited”, the “VEGF‐A mediated P130Cas phosphorylation” value is given as “also inhibited” and the “VEGF‐A mediated Paxillin phosphorylation” value is listed as “also inhibited”.

(Values after PMC8776337, “Peptides Derived from Vascular Endothelial Growth Factor B Show Potent Binding to Neuropilin‐1” (Chembiochem, 2021).)
